Assay results published in PubChem BioAssay AID192 (DTP/NCI, 2004).
Where “and” joins values, the source holds several entries; their conditions need not be identical. Identical values can stand only once. Toxic doses and inconclusive results are not listed. How the source made its calls: active means survival T/C of 150% or more; inactive means T/C below 125% in these data.

Tested on: BDF1 mice, B16 melanoma ip, median survival T/C
Test: NCI In Vivo Anticancer Drug Screen. Data for tumor model B16 Melanoma (intraperitoneal) in B6D2F1 (BDF1) mice
Conditions: endpoint: median survival time, higher = longer survival
Summary of the method: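 Vehicle-treated animals serve as the reference (C); treated animals (T) are scored for survival or tumor size after tumor transplantation.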

[1] = dose: 100.0 mg/kg/injection, schedule: Q01DX009 (ip), vehicle: saline with Tween-80
[2] = dose: 200.0 mg/kg/injection, schedule: Q01DX009 (ip), vehicle: saline with Tween-80
[3] = dose: 400.0 mg/kg/injection, schedule: Q01DX009 (ip), vehicle: saline with Tween-80
[4] = dose: 25.0 mg/kg/injection, schedule: Q01DX009 (ip), vehicle: saline with Tween-80
[5] = dose: 50.0 mg/kg/injection, schedule: Q01DX009 (ip), vehicle: saline with Tween-80
[6] = dose: 100.0 mg/kg/injection, schedule: Q04DX003 (ip), vehicle: Klucel (hydroxypropylcellulose) (HPC)
[7] = dose: 200.0 mg/kg/injection, schedule: Q04DX003 (ip), vehicle: Klucel (hydroxypropylcellulose) (HPC)
[8] = dose: 6.25 mg/kg/injection, schedule: Q01DX009 (ip), vehicle: saline with Tween-80

Measured: T/C

Nc1nc(N)c2cc(CNc3ccc(C(=O)NC(CC(=O)O)CC(=O)O)cc3)ccc2n1
inactive: dose: 0.04 mg/kg/injection, schedule: Q01DX009 (ip), vehicle: Klucel (hydroxypropylcellulose) (HPC) 109 % of control | dose: 0.09 mg/kg/injection, schedule: Q01DX009 (ip), vehicle: Klucel (hydroxypropylcellulose) (HPC) 95 % of control | dose: 0.19 mg/kg/injection, schedule: Q01DX009 (ip), vehicle: Klucel (hydroxypropylcellulose) (HPC) 104 % of control | dose: 0.39 mg/kg/injection, schedule: Q01DX009 (ip), vehicle: Klucel (hydroxypropylcellulose) (HPC) 95 % of control | dose: 0.78 mg/kg/injection, schedule: Q01DX009 (ip), vehicle: Klucel (hydroxypropylcellulose) (HPC) 95 % of control and 112 % of control | dose: 1.56 mg/kg/injection, schedule: Q01DX009 (ip), vehicle: Klucel (hydroxypropylcellulose) (HPC) 112 % of control | dose: 3.12 mg/kg/injection, schedule: Q01DX009 (ip), vehicle: Klucel (hydroxypropylcellulose) (HPC) 93 % of control | dose: 6.25 mg/kg/injection, schedule: Q01DX009 (ip), vehicle: Klucel (hydroxypropylcellulose) (HPC) 93 % of control | dose: 12.5 mg/kg/injection, schedule: Q01DX009 (ip), vehicle: Klucel (hydroxypropylcellulose) (HPC) 90 % of control and 101 % of control and 102 % of control | dose: 25.0 mg/kg/injection, schedule: Q01DX009 (ip), vehicle: Klucel (hydroxypropylcellulose) (HPC) 98 % of control and 124 % of control | dose: 50.0 mg/kg/injection, schedule: Q01DX009 (ip), vehicle: Klucel (hydroxypropylcellulose) (HPC) 99 % of control

COc1cc2c(cc1O)C(=O)CCCC2
inactive: [1] 107 % of control | [2] 101 % of control | [3] 89 % of control and 101 % of control

CSCCC1NC(=O)C(/C(C)=N\NC(N)=O)=C1O (stereo not given)
inactive: [4] 111 % of control | [5] 105 % of control | [1] 96 % of control | [2] 96 % of control

O=S(=O)(O)c1cc(O)c2ccccc2c1
inactive: dose: 100.0 mg/kg/injection, schedule: Q01DX009 (ip), vehicle: saline 107 % of control | dose: 200.0 mg/kg/injection, schedule: Q01DX009 (ip), vehicle: saline 100 % of control | dose: 400.0 mg/kg/injection, schedule: Q01DX009 (ip), vehicle: saline 102 % of control

CC(=O)C(C)C(C)=O
inactive: [1] 88 % of control | [2] 90 % of control | [3] 91 % of control

N=[N+]=CC(=O)CCC(NC(=O)C(CCC(=O)C=[N+]=N)NC(=O)CCC(N)C(=O)O)C(=O)O (stereo not given)
inactive: dose: 0.01 mg/kg/injection, schedule: Q01DX009 (ip), vehicle: other 96 % of control and 100 % of control and 106 % of control | dose: 0.05 mg/kg/injection, schedule: Q01DX009 (ip), vehicle: saline 100 % of control | dose: 0.1 mg/kg/injection, schedule: Q01DX009 (ip), vehicle: saline 117 % of control | dose: 0.1 mg/kg/injection, schedule: Q01DX009 (ip), vehicle: suspension in saline 90 % of control | dose: 0.2 mg/kg/injection, schedule: Q01DX009 (ip), vehicle: Klucel (hydroxypropylcellulose) (HPC) 90 % of control | dose: 0.2 mg/kg/injection, schedule: Q01DX009 (ip), vehicle: suspension in saline 103 % of control | dose: 0.4 mg/kg/injection, schedule: Q01DX009 (ip), vehicle: Klucel (hydroxypropylcellulose) (HPC) 92 % of control | dose: 0.4 mg/kg/injection, schedule: Q01DX009 (ip), vehicle: suspension in saline 101 % of control | dose: 0.5 mg/kg/injection, schedule: Q01DX009 (ip), vehicle: other 87 % of control | dose: 0.8 mg/kg/injection, schedule: Q01DX009 (ip), vehicle: Klucel (hydroxypropylcellulose) (HPC) 100 % of control | dose: 0.8 mg/kg/injection, schedule: Q01DX009 (ip), vehicle: suspension in saline 100 % of control | dose: 1.6 mg/kg/injection, schedule: Q01DX009 (ip), vehicle: Klucel (hydroxypropylcellulose) (HPC) 100 % of control | dose: 1.6 mg/kg/injection, schedule: Q01DX009 (ip), vehicle: suspension in saline 105 % of control | dose: 2.5 mg/kg/injection, schedule: Q04DX003 (ip), vehicle: water 105 % of control | dose: 5.0 mg/kg/injection, schedule: Q04DX003 (ip), vehicle: water 105 % of control | dose: 10.0 mg/kg/injection, schedule: Q04DX003 (ip), vehicle: other 122 % of control | dose: 10.0 mg/kg/injection, schedule: Q04DX003 (ip), vehicle: water 107 % of control | dose: 5.0 micrograms/kg/injection, schedule: Q01DX009 (ip), vehicle: water 123 % of control | dose: 10.0 micrograms/kg/injection, schedule: Q01DX009 (ip), vehicle: water 94 % of control | dose: 50.0 micrograms/kg/injection, schedule: Q01DX009 (ip), vehicle: water 115 % of control | dose: 100.0 micrograms/kg/injection, schedule: Q01DX009 (ip), vehicle: water 89 % of control

COc1ccc(OC)c(/C=C/C(=O)c2ccc(Cl)cc2)c1
inactive: dose: 100.0 mg/kg/injection, schedule: Q01DX009 (ip), vehicle: Klucel (hydroxypropylcellulose) (HPC) 92 % of control | [6] 103 % of control | dose: 200.0 mg/kg/injection, schedule: Q01DX009 (ip), vehicle: Klucel (hydroxypropylcellulose) (HPC) 92 % of control | [7] 109 % of control | dose: 400.0 mg/kg/injection, schedule: Q01DX009 (ip), vehicle: Klucel (hydroxypropylcellulose) (HPC) 89 % of control | dose: 400.0 mg/kg/injection, schedule: Q04DX003 (ip), vehicle: Klucel (hydroxypropylcellulose) (HPC) 103 % of control

CCCC(NC(=O)C(C)Br)C(=O)O (stereo not given)
inactive: [5] 101 % of control | [1] 87 % of control

NC(=O)NC1CCCC1
inactive: [1] 106 % of control | [2] 112 % of control | [3] 102 % of control

O=C(CNC(=O)Nc1ccc(C2=NCCN2)cc1)Nc1ccc(C2=NCCN2)cc1
inactive: [8] 97 % of control | dose: 12.5 mg/kg/injection, schedule: Q01DX009 (ip), vehicle: saline with Tween-80 100 % of control | [4] 97 % of control

O=C(Nc1ccc2ccccc2c1)c1ccc(Cl)cc1Cl
inactive: dose: 100.0 mg/kg/injection, schedule: Q04DX003 (ip), vehicle: saline with Tween-80 88 % of control | dose: 200.0 mg/kg/injection, schedule: Q04DX003 (ip), vehicle: saline with Tween-80 91 % of control | dose: 400.0 mg/kg/injection, schedule: Q04DX003 (ip), vehicle: saline with Tween-80 94 % of control

COc1ccccc1NC(=O)Nc1ccc(Nc2ccccc2)cc1
inactive: dose: 100.0 mg/kg/injection, schedule: Q01DX009 (ip), vehicle: gum acacia 109 % of control | dose: 200.0 mg/kg/injection, schedule: Q01DX009 (ip), vehicle: gum acacia 97 % of control

CCCCCCCCOc1ccc(C(=O)c2ccccc2)c(O)c1
inactive: dose: 6.0 mg/kg/injection, schedule: Q01DX009 (ip), vehicle: Klucel (hydroxypropylcellulose) (HPC) 92 % of control | [6] 91 % of control | [7] 93 % of control

N=C(N)c1ccc(/C=C/c2ccc(C(=N)N)cc2)cc1
inactive: dose: 16.0 mg/kg/injection, schedule: Q01DX009 (ip), vehicle: saline with Tween-80 98 % of control | dose: 32.0 mg/kg/injection, schedule: Q01DX009 (ip), vehicle: saline with Tween-80 93 % of control

S=C([S][Sn]([c]1ccccc1)([c]1ccccc1)[c]1ccccc1)N1CCOCC1
inactive: dose: 1.56 mg/kg/injection, schedule: Q01DX009 (ip), vehicle: saline with Tween-80 107 % of control | dose: 3.13 mg/kg/injection, schedule: Q01DX009 (ip), vehicle: saline with Tween-80 100 % of control | [8] 110 % of control

CNCCOc1ccccc1
inactive: [4] 110 % of control | [5] 101 % of control | [1] 101 % of control
